We go through two molecules from patent publication US20060142566A1, “Enantioselective process for the preparation of both enantiomers of 10,11-dihydro-10-hydroxy-5h-dibenz[b,f]azepine-5-carboxamide and new crystal forms thereof” (priority 2002, published 2006).

Holding throughout (format): physicochemical
Data set [1] in a line: solubility in organic and aqueous solutions. The following applies: compared to modification B.
Data set [2] is described as follows: hygroscopicity of the crystal modifications.
Data set [3] is described as follows: stability of the crystal forms (bulk stability, thermodynamic stability). The conditions noted are these: solid form, storage.

Turning to `NC(=O)N1c2ccccc2CC(O)c2ccccc21` (single isomer, unassigned) [modification A, (R)- or (S)-10,11-dihydro-10-hydroxy-5H-dibenz[b,f]azepine-5-carboxamide], the solubility entry in data set [1] was “better soluble in organic and aqueous solutions than modification B”. In addition, the hygroscopicity entry in data set [2] is listed as “Neither modification A nor modification B are hygroscopic”.

As for `NC(=O)N1c2ccccc2CC(O)c2ccccc21` (single isomer, unassigned) [modification B, (R)- or (S)-10,11-dihydro-10-hydroxy-5H-dibenz[b,f]azepine-5-carboxamide], in data set [2], the hygroscopicity result is recorded as “Neither modification A nor modification B are hygroscopic”. In addition, in data set [3], the “stability of crystal form (thermodynamic)” value is given as “thermodynamically stable crystalline form”.
